The values below come from PubChem BioAssay (NCI).

Some test systems named below: M19-MEL melanoma; LXFL 529 NSCLC; DLD-1 colon; XF 498 CNS; DMS 114 small cell lung; SNB-78 CNS; DMS 273 small cell lung; HOP-18 NSCLC; RXF-631 renal.
Common to all, as to assay: NCI tumour cell line growth inhibition, 48 h

Each structure is given as a SMILES string.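 48-hour exposure; five concentrations; linearly interpolated endpoints. TGI marks complete inhibition of growth.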

With `CCOC(=O)Nc1cc2nnc(-c3ccccc3)nc2c(N)n1`, the TGI with M19-MEL melanoma, in the test with LXFL 529 NSCLC, with DLD-1 colon, with XF 498 CNS and in the test on DMS 114 small cell lung was > 100 µM each time.

For `CCC(C)n1c(C)nc2c1C(=O)c1ccccc1C2=O` (configuration not stated), the TGI is 37.5 µM with M19-MEL melanoma; > 100 µM in the test with SNB-78 CNS; > 100 µM in the test with LXFL 529 NSCLC; > 100 µM in the test on DLD-1 colon; > 100 µM with DMS 273 small cell lung; > 100 µM with XF 498 CNS.

For `Cc1cc(N(CCC#N)CCC#N)ccc1/C=C1N=C(/C=C\c2ccccc2)OC\1=O`, the TGI in the test on M19-MEL melanoma, in the test with SNB-78 CNS, in the test on LXFL 529 NSCLC, in the test with DLD-1 colon, in the test with DMS 273 small cell lung and with HOP-18 NSCLC was > 100 µM each time. In addition, the TGI in the test with XF 498 CNS and with DMS 114 small cell lung was > 100 µM each time.

In the case of `CCNC(C)Cc1ccccc1` (configuration not stated), the TGI with SNB-78 CNS, with LXFL 529 NSCLC, in the test with DLD-1 colon, in the test on DMS 273 small cell lung, in the test with HOP-18 NSCLC and with DMS 114 small cell lung was > 100 µM each time.

On to `O=C(Nc1c(O)[nH]c(=S)[nH]c1=O)c1ccccc1F`, for which the TGI in the test with RXF-631 renal, in the test on M19-MEL melanoma, in the test on SNB-78 CNS, with LXFL 529 NSCLC, in the test with DLD-1 colon and with HOP-18 NSCLC was > 100 µM throughout. For the same compound, the TGI in the test with DMS 114 small cell lung was > 100 µM.

As to `ON/N=C/c1cc2c(cc1Br)OCO2`, the TGI in the test on RXF-631 renal, with M19-MEL melanoma, in the test on LXFL 529 NSCLC, with DLD-1 colon, with DMS 273 small cell lung and with HOP-18 NSCLC was > 386 µM in each case. Further, in the test with DMS 114 small cell lung, the TGI is > 386 µM.

Take `C/C(CN1C(=O)c2ccccc2C1=O)=N\NS(=O)(=O)c1ccc(C)cc1`: the TGI in the test on M19-MEL melanoma, in the test with SNB-78 CNS, with LXFL 529 NSCLC, in the test with DLD-1 colon, in the test with DMS 273 small cell lung and in the test on HOP-18 NSCLC was > 100 µM throughout.

Take `O=C(/C=C/c1ccc(OCCCOc2ccc(/C=C/C(=O)c3ccccc3)cc2)cc1)c1ccccc1`: the TGI in the test on RXF-631 renal, in the test on M19-MEL melanoma, in the test with LXFL 529 NSCLC, with DLD-1 colon, with DMS 273 small cell lung and in the test with DMS 114 small cell lung was > 100 µM throughout.

As for `Cc1ccc(S(=O)(=O)c2c(N)c3nc4ccccc4n3c3nc4ccccc4nc23)cc1`, the TGI in the test with RXF-631 renal, with M19-MEL melanoma, with LXFL 529 NSCLC, in the test on DLD-1 colon, in the test with DMS 273 small cell lung and in the test with DMS 114 small cell lung was > 100 µM throughout.

For `CN(C)CCOc1cccc2c1C(=O)c1ccccc1C2=O`, the TGI in the test with M19-MEL melanoma turned out to be 17.9 µM; in the test with SNB-78 CNS it was 38.2 µM; with LXFL 529 NSCLC, 43.6 µM; in the test with DLD-1 colon, 34.5 µM; with DMS 273 small cell lung, 21.7 µM; in the test with HOP-18 NSCLC it was 46.9 µM. Besides, the TGI is 33 µM with XF 498 CNS and 22.6 µM in the test with DMS 114 small cell lung.

`CCc1ccc(N=Cc2cc(OC)c(OC)c(OC)c2)cc1`: the TGI in the test with M19-MEL melanoma, in the test with SNB-78 CNS, in the test on LXFL 529 NSCLC, in the test with DLD-1 colon, in the test on DMS 273 small cell lung and with HOP-18 NSCLC was > 100 µM throughout. Further, the TGI was > 100 µM with XF 498 CNS and 76.1 µM in the test with DMS 114 small cell lung.

Take `CC(=O)OC12/C(=N/O)CCCCCC1c1ccccc12` (configuration not stated): the TGI in the test with M19-MEL melanoma, in the test on SNB-78 CNS, in the test on LXFL 529 NSCLC, in the test with DMS 273 small cell lung, in the test on HOP-18 NSCLC and in the test with XF 498 CNS was > 100 µM in each case. Besides, in the test on DMS 114 small cell lung, the TGI was > 100 µM.

Regarding `Cc1cn(Cc2ccccc2CCO)c(=S)[nH]c1=O`, the TGI in the test with RXF-631 renal, in the test with M19-MEL melanoma, in the test with LXFL 529 NSCLC, in the test on DMS 273 small cell lung, with HOP-18 NSCLC and in the test with XF 498 CNS was > 100 µM in each case. For the same compound, the TGI in the test on DMS 114 small cell lung was > 100 µM.
